This is an account of results in publication PMC7555825, “New Insights of the Zn(II)-Induced P2 × 4R Positive Allosteric Modulation: Role of Head Receptor Domain SS2/SS3, E160 and D170” (International Journal of Molecular Sciences, 2020).

Molecules are shown by their SMILES. Numbering of substitutions follows the chain as printed.

The target of assay [1] is T1, rP2 × 2R (Rattus norvegicus, UniProt P49653).
T1 sequence (P49653 1-472): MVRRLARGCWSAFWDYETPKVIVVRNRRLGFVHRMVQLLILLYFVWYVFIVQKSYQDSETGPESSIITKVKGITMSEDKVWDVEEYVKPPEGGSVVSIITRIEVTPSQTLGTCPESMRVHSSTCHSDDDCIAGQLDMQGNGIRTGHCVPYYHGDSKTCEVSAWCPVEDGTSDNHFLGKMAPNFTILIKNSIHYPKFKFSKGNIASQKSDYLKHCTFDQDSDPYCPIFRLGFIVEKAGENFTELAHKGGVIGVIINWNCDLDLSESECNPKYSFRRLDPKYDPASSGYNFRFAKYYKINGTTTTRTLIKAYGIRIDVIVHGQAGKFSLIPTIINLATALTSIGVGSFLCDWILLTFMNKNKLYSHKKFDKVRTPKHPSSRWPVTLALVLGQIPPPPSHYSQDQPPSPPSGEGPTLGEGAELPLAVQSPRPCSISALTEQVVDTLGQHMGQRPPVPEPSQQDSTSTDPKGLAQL
The assay is described as follows: cell-based.

In a further assay the target is T2, rP2 × 4R (Rattus norvegicus, UniProt P51577).
T2 construct: host or cells: Xenopus laevis oocytes (intranuclear plasmid injection, pcDNA3)
T2 sequence (P51577 1-388): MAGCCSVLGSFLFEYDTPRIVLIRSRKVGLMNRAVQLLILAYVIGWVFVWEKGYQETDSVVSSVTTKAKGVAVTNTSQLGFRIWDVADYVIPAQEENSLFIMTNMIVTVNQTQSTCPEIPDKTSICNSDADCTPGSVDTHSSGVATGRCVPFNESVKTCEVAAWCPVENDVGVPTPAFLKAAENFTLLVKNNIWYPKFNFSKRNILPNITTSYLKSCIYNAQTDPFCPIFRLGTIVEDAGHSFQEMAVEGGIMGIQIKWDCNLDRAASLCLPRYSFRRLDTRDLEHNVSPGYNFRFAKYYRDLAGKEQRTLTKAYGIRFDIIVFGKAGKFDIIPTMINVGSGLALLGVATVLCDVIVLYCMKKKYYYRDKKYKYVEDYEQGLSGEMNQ
Kind of assay: Short protocol: Zn(II) potentiation of single 10 µM ATP-evoked currents before/after thiol reagent treatment, rP2 × 4R oocytes. The class given is cell-based. As to conditions: for fold increase of ATP-evoked currents by Zn(II): 10 µM ATP. As to the method:
(§1) A simpler and shorter assay to test the Zn(II) potentiation was developed to better assess the loss of Zn(II) modulation elicited by the joint co-treatment of NEM plus Zn(II). […] Ten minutes after alkylator washout, cells were treated with Zn(II) plus NEM or iodoacetamide (IA) for 5 min followed by 20 min of alkylator washout. Next, the P2 × R was tested again to examine the magnitude of the Zn(II) potentiation.
(§2) After 10 min of washout we applied 300 µM NEM, 300 µM IA, 300 µM IAc, or 300 µM DTNB for 5 min in absence or presence of Zn(II) (10 µM for rP2 × 4R and 30 µM for rP2 × 2R).
After 10 min of washout we applied 300 µM NEM + 10 µM DTT.

Assay [2] deals with T1, rP2 × 2R. Kind of assay: Short protocol: Zn(II) potentiation of single 10 µM ATP-evoked currents before/after thiol reagent treatment, rP2 × 2R oocytes. The arrangement: expressed in transfected cells; host or cells: Xenopus laevis oocytes (intranuclear plasmid injection). As to conditions: for times potentiation of ATP-evoked currents by Zn(II): 30 µM Zn(II). It counts as cell-based. As for the experimental part: as §1, §2

Another assay has as its target T3, rP2 × 4R E118Q mutant (Rattus norvegicus, UniProt P51577, E118Q).
T3 construct: host or cells: Xenopus laevis oocytes
T3 sequence (P51577 1-388 E118Q): T2 sequence (P51577 1-388) with E118Q
Kind of assay: ATP concentration–response curves, voltage clamp, E118Q mutant. It counts as cell-based. As to conditions: 10 µM Zn(II).

In assay [3] the target is T1, rP2 × 2R. The arrangement: expressed in transfected cells; host or cells: Xenopus laevis oocytes (intranuclear plasmid injection); method as in PMID 10737610, PMID 10188989, PMID 10322050, PMID 8622997. As to conditions: P2 × 2R; cited from earlier work.
Another assay relates to D170A mutant. More on the design: method as in Kasuya et al., (2016) 38. The following applies: ref Kasuya et al., (2016) 38; cited from earlier work.

Usually EC50 stands for the concentration giving half of the maximal effect. Take `Nc1ncnc2c1ncn2[C@@H]1O[C@H](COP(=O)(O)OP(=O)(O)OP(=O)(O)O)[C@@H](O)[C@H]1O` [ATP, adenosine triphosphate]: the concentration giving a half-maximal response (EC50) on rP2 × 2R [1] (ATP EC50, NEM treatment + Zn(II) group, control before treatment (first ATP curve)) was determined as 39.9 ± 8.3 µM; on rP2 × 2R [1] (ATP EC50, NEM treatment + vehicle group, control before treatment (first ATP curve)), 67.7 ± 13.3 µM; at rP2 × 2R [1] (ATP EC50, after 300 µM NEM + 30 µM Zn(II) treatment, control = ATP curve after treatment), 33 ± 7.4 µM; on rP2 × 2R [1] (ATP EC50, after 300 µM NEM + vehicle treatment, control = ATP curve after treatment) it was 35 ± 9.2 µM; at rP2 × 2R [1] (ATP EC50, vehicle treatment, Figure 1D, without Zn(II)), 56.4 ± 7.4 µM.
Take `[Cl-].[Cl-].[Zn+2]` [Zn(II), zinc chloride (ZnCl2)]: the “fold increase of ATP-evoked currents by Zn(II)” value on rP2 × 4R (10 µM Zn(II), after 300 µM NEM plus 10 µM Zn(II) incubation) was determined as 1.3 ± 0.2 fold; at rP2 × 4R (10 µM Zn(II), after 300 µM NEM treatment (no Zn(II)) and washout), 1.6 ± 0.2 fold; on rP2 × 4R (10 µM Zn(II), before NEM plus Zn(II) incubation), 2.4 ± 0.3 fold; on rP2 × 4R (10 µM Zn(II), before NEM treatment), 1.8 ± 0.1 fold. Moreover, the “fold potentiation of ATP-evoked currents by Zn(II)” value at rP2 × 4R (10 µM Zn(II), before 10 µM DTT + 300 µM NEM treatment) was 2.0 ± 0.2 fold. Moreover, the “ATP plus Zn(II) current after DTT plus NEM treatment, fold for the first ATP application” value at rP2 × 4R (10 µM Zn(II), no potentiation by Zn(II) observed) amounted to 2.4 ± 0.7 fold. Moreover, the “fold potentiation of 10 µM ATP-evoked currents by Zn(II)” value on rP2 × 4R (10 µM Zn(II), prior to any treatments) was roughly 2 fold. Also, the “fold Zn(II)-induced potentiation of ATP-evoked currents” value on rP2 × 4R (after 300 µM DTNB plus 10 µM Zn(II) treatment) came out at 2.1 ± 0.4 fold; at rP2 × 4R (after 300 µM IAc plus 10 µM Zn(II) treatment), 2.4 ± 0.7 fold; on rP2 × 4R (before DTNB plus Zn(II) treatment) it was 1.9 ± 0.3 fold; at rP2 × 4R (before IAc plus Zn(II) treatment) it was 2.2 ± 0.2 fold. Also, at rP2 × 4R (after 10 min washout initial 10 µM ATP-gated current fully recovered), the “reversibility of the metal effect” value was “reversible”. In addition, the “times potentiation of ATP-evoked currents by Zn(II)” value at rP2 × 2R [2] (before IA + Zn(II) treatment, Figure 2F) is 8.3 ± 4.0 times; at rP2 × 2R [2] (before NEM + Zn(II) treatment, Figure 2E), 11.4 ± 2.0 times. Also, the “Zn(II) concentration potentiating the ATP-evoked currents” value at rP2 × 2R [2] (co-application with ATP, Figure S1 right) was in the range of 30 to 300 µM. Moreover, the “fold leftward shift of ATP concentration–response curve by Zn(II)” value at rP2 × 4R E118Q mutant came out at 13.6 fold. The “fold leftward displacement of the ATP concentration–response curve by Zn(II)” value on rP2 × 2R [3] was 5 fold. Further, the “fold potentiation of the 3 µM ATP-gated currents” value in the assay on D170A mutant is reported as 2 fold.
